Reference: patent US4481139A, “Peptide antagonists of substance P” (Board of Regents, The University of Texas System, priority 1983, dated 1984)
Values joined by “and” are separate entries in the source; they are usually repeats but may differ in a detail not shown here. Identical values can stand only once. Non-standard residues stand in square brackets, D forms with d. Residues, ends and D or L forms follow the SMILES beside them. pGlu = O=C1CC[C@@H](C(=O)O)N1

Experiments:
[1] = system: terminal portion of the guinea pig ileum; assay: Antagonistic activity against substance P on the terminal portion of the guinea pig ileum; assay type: cell-based; settings: analog at 10^-4 (concentration unit not given)
Experimental: The antagonistic activities of the analogs were evaluated using the terminal portion of the guinea pig ileum, as described by Yamaguchi et al. [Acta Chem. Scand. B33, 63 (1979)]. The biological assay data are in Table IV.
The sequence of substance P (SP) is expressed in the top of Table IV. The antagonistic activity is defined as the fold-increase in the concentration of SP in the presence of the analog to give 50% of the maximal response which is elicited by SP alone. The sequences of the analogs which were designed and synthesized are in Table IV. The eleven amino acids of SP are spaced across the top line to facilitate visual comparison of the amino acids in SP with those in the analogs. For example, analog I is also spaced across the page to show the sequence relationship to SP. On this basis, analog I is H-Arg^1,Pro^2,Lys^3,Pro^4,D-Phe^5,Gln^6,D-Trp^7,Phe^8 D-Trp^9,Leu^10,Leu^11 -NH2, but on the basis of conventional peptide nomenclature, analog I is expressed as [D-Phe^5,D-Trp^7,D-Trp^9,Leu^11 ]-SP5-11.

[2] = Solubility in 50% ethanol (footnote to Table IV); assay type: physicochemical
[3] = SP = 1; cited from earlier work

Row | Compound | Fold increase in conc. of SP in the presence of the analog to give 50% of the maximal response elicited by SP alone [1] | Solubility [2] | Relative activity in comparison with SP as 1 [3]
1 | [D-Phe^5,D-Trp^7,D-Trp^9,Leu^11 ]-SP5-11 [Analog I] | > 200 fold and 200 fold | difficulty soluble in 50% ethanol | 
2 | Glp-Gln-Phe-Phe-Gly-Leu-Met-NH2 ([pGlu]QFFGLM-NH2; SMILES CSCC[C@H](NC(=O)[C@H](CC(C)C)NC(=O)CNC(=O)[C@H](Cc1ccccc1)NC(=O)[C@H](Cc1ccccc1)NC(=O)[C@H](CCC(N)=O)NC(=O)[C@@H]1CCC(=O)N1)C(N)=O) [truncated heptapeptide analog of SP from Yanaihara et al] |  |  | 1.7
3 | CC(C)C[C@H](NC(=O)[C@@H](Cc1c[nH]c2ccccc12)NC(=O)[C@H](Cc1ccccc1)NC(=O)[C@@H](Cc1c[nH]c2ccccc12)NC(=O)[C@H](CCC(N)=O)NC(=O)[C@@H]1CCC(=O)N1)C(=O)N[C@H](C(N)=O)[C@@H](C)O [Analog III, [Glp^5,D-Trp^7,D-Trp^9,Thr^11]--SP5-11] ([pGlu]Q[dW]F[dW]LT-NH2) | 2 fold |  | 
4 | CC(C)C[C@H](NC(=O)[C@H](CC(C)C)NC(=O)[C@@H](Cc1c[nH]c2ccccc12)NC(=O)[C@H](Cc1ccccc1)NC(=O)[C@@H](Cc1c[nH]c2ccccc12)NC(=O)[C@H](CCC(N)=O)NC(=O)[C@@H]1CCC(=O)N1)C(N)=O [Analog V, [Glp^5,D-Trp^7,D-Trp^9,Leu^11]--SP5-11] ([pGlu]Q[dW]F[dW]LL-NH2) | 17 fold |  | 
